Test results as given in patent publication US12077503B2, “Substituted cyclic amides and their use as herbicides” (FMC CORPORATION, priority 2015, dated 2024).

Assays:
Assay type in all cases: in vivo
[1] = test system: barnyardgrass (Echinochloa crus-galli); test: Test A preemergence; conditions: Echinochloa crus-galli, pre-emergence, 240 h; for pest or weed control at 125 g/ha: 125 g ai/ha, preemergence, 0 to 100 scale where 0 is no effect and 100 is complete control, read-out: Barnyardgrass plant response rating; for pest or weed control at 500 g/ha: 500 g ai/ha, Preemergence, visual injury vs untreated controls after approximately 10 d, read-out: Barnyardgrass plant response rating (0 to 100 scale where 0 is no effect and 100 is complete control)
Outline: (§1)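 Visual injury, scored on a 0–100 scale relative to untreated controls, was recorded about 10 d after application. Treatments were a preemergence soil spray over planted seeds or a postemergence spray on plants at the one- to two-leaf stage, 2 to 10 cm tall, all in loam soil–sand blend in the greenhouse.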

[2] = test system: pigweed (Amaranthus retroflexus); test: Test A preemergence; conditions: Amaranthus retroflexus, pre-emergence, 240 h; for pest or weed control at 125 g/ha: 125 g ai/ha, preemergence, 0 to 100 scale where 0 is no effect and 100 is complete control, read-out: Pigweed plant response rating; for pest or weed control at 500 g/ha: 500 g ai/ha, Preemergence, visual injury vs untreated controls after approximately 10 d, read-out: Pigweed plant response rating (0 to 100 scale where 0 is no effect and 100 is complete control)
Kochia (Kochia scoparia) [3] = test: Test A preemergence; conditions: Bassia scoparia, pre-emergence, 240 h; for pest or weed control at 125 g/ha: 125 g ai/ha, preemergence, 0 to 100 scale where 0 is no effect and 100 is complete control, read-out: Kochia plant response rating; for pest or weed control at 500 g/ha: 500 g ai/ha, Preemergence, visual injury vs untreated controls after approximately 10 d, read-out: Kochia plant response rating (0 to 100 scale where 0 is no effect and 100 is complete control)
Outline: as §1

[4] = test system: ryegrass, Italian (Italian ryegrass, Lolium multiflorum); test: Test A preemergence; conditions: Lolium multiflorum, pre-emergence, 240 h; for pest or weed control at 125 g/ha: 125 g ai/ha, preemergence, 0 to 100 scale where 0 is no effect and 100 is complete control, read-out: Ryegrass, Italian plant response rating; for pest or weed control at 500 g/ha: 500 g ai/ha, Preemergence, visual injury vs untreated controls after approximately 10 d, read-out: Ryegrass, Italian plant response rating (0 to 100 scale where 0 is no effect and 100 is complete control)
Outline: as §1

[5] = test system: ragweed (common ragweed, Ambrosia elatior); test: Test A preemergence; conditions: Ambrosia artemisiifolia, pre-emergence, 240 h; for pest or weed control at 125 g/ha: 125 g ai/ha, preemergence, 0 to 100 scale where 0 is no effect and 100 is complete control, read-out: Ragweed plant response rating; for pest or weed control at 500 g/ha: 500 g ai/ha, Preemergence, visual injury vs untreated controls after approximately 10 d, read-out: Ragweed plant response rating (0 to 100 scale where 0 is no effect and 100 is complete control)
Outline: as §1

[6] = test system: giant foxtail (Setaria faberii); test: Test A preemergence; conditions: Setaria faberi, pre-emergence, 240 h; for pest or weed control at 125 g/ha: 125 g ai/ha, preemergence, 0 to 100 scale where 0 is no effect and 100 is complete control, read-out: Foxtail, Giant plant response rating; for pest or weed control at 500 g/ha: 500 g ai/ha, Preemergence, visual injury vs untreated controls after approximately 10 d, read-out: Foxtail, Giant plant response rating (0 to 100 scale where 0 is no effect and 100 is complete control)
Outline: as §1

[7] = test system: barnyardgrass (Echinochloa crus-galli); test: Test A postemergence; conditions: Echinochloa crus-galli, post-emergence, 240 h, 125 g ai/ha, postemergence, visual injury rating after approximately 10 d; read-out: Barnyardgrass plant response rating (0 to 100 scale, 0 no effect, 100 complete control)
Outline: as §1

corn (Zea mays) = test: Test A postemergence; conditions: Zea mays, post-emergence, 240 h, 125 g ai/ha, postemergence, visual injury rating after approximately 10 d; read-out: Corn plant response rating (0 to 100 scale, 0 no effect, 100 complete control)
Outline: as §1

[8] = test system: blackgrass (Alopecurus myosuroides); test: Test A postemergence; conditions: Alopecurus myosuroides, post-emergence, 240 h, 125 g ai/ha, postemergence, visual injury rating after approximately 10 d; read-out: Blackgrass plant response rating (0 to 100 scale, 0 no effect, 100 complete control)
Outline: as §1

[9] = test system: Galium (catchweed bedstraw, Galium aparine); test: Test A postemergence; conditions: Galium, post-emergence, 240 h, 125 g ai/ha, postemergence, visual injury rating after approximately 10 d; read-out: Galium plant response rating (0 to 100 scale, 0 no effect, 100 complete control)
Outline: as §1

[10] = test system: pigweed (Amaranthus retroflexus); test: Test A postemergence; conditions: Amaranthus retroflexus, post-emergence, 240 h, 125 g ai/ha, postemergence, visual injury rating after approximately 10 d; read-out: Pigweed plant response rating (0 to 100 scale, 0 no effect, 100 complete control)
Outline: as §1

Kochia (Kochia scoparia) [11] = test: Test A postemergence; conditions: Bassia scoparia, post-emergence, 240 h, 125 g ai/ha, postemergence, visual injury rating after approximately 10 d; read-out: Kochia plant response rating (0 to 100 scale, 0 no effect, 100 complete control)
Outline: as §1

[12] = test system: ryegrass, Italian (Italian ryegrass, Lolium multiflorum); test: Test A postemergence; conditions: Lolium multiflorum, post-emergence, 240 h, 125 g ai/ha, postemergence, visual injury rating after approximately 10 d; read-out: Ryegrass, Italian plant response rating (0 to 100 scale, 0 no effect, 100 complete control)
Outline: as §1

[13] = test system: ragweed (common ragweed, Ambrosia elatior); test: Test A postemergence; conditions: Ambrosia artemisiifolia, post-emergence, 240 h, 125 g ai/ha, postemergence, visual injury rating after approximately 10 d; read-out: Ragweed plant response rating (0 to 100 scale, 0 no effect, 100 complete control)
Outline: as §1

[14] = test system: wheat (Triticum aestivum); test: Test A postemergence; conditions: Triticum aestivum, post-emergence, 240 h, 125 g ai/ha, postemergence, visual injury rating after approximately 10 d; read-out: Wheat plant response rating (0 to 100 scale, 0 no effect, 100 complete control)
Outline: as §1

Row | Structure (SMILES) | pest or weed control at 125 g/ha [1] [%] | pest or weed control at 500 g/ha [1] [%] | pest or weed control at 125 g/ha [2] [%] | pest or weed control at 500 g/ha [2] [%] | pest or weed control at 125 g/ha (Kochia (Kochia scoparia) [3]) [%] | pest or weed control at 500 g/ha (Kochia (Kochia scoparia) [3]) [%] | pest or weed control at 125 g/ha [4] [%] | pest or weed control at 500 g/ha [4] [%] | pest or weed control at 125 g/ha [5] [%] | pest or weed control at 500 g/ha [5] [%] | pest or weed control at 125 g/ha [6] [%] | pest or weed control at 500 g/ha [6] [%] | pest or weed control at 125 g/ha [7] [%] | plant injury at 125 g/ha (corn (Zea mays)) [%] | pest or weed control at 125 g/ha [8] [%] | pest or weed control at 125 g/ha [9] [%] | pest or weed control at 125 g/ha [10] [%] | pest or weed control at 125 g/ha (Kochia (Kochia scoparia) [11]) [%] | pest or weed control at 125 g/ha [12] [%] | pest or weed control at 125 g/ha [13] [%] | further results
1 | CN1C[C@H](c2cccc(OC(F)(F)C(F)F)c2)[C@@H](C(=O)Nc2ccccc2S(C)(=O)=O)C1=O [Compound 864] | 90 | 90 | 90 | 90 | 60 | 80 | 0 | 50 | 20 | 50 | 90 | 90 | 90 | 60 | 50 | 20 | 20 | 0 | 50 | 0 | plant injury at 125 g/ha [14]: 50%
2 | CN1C[C@H](c2cc(F)cc(F)c2)[C@@H](C(=O)Nc2ccc(C(F)(F)F)cn2)C1=O [Compound 869] | 60 | 90 | 0 | 0 | 0 | 0 | 0 | 0 | 0 | 0 | 90 | 90 | 80 | 0 | 0 | 0 | 0 | 0 | 0 | 0 | plant injury at 125 g/ha [14]: 0%
3 | CN1C[C@H](c2cc(F)cc(F)c2)[C@@H](C(=O)Nc2ccc(C(F)(F)F)nc2)C1=O [Compound 870] | 50 | 80 | 0 | 0 | 0 | 0 | 0 | 0 | 0 | 0 | 20 | 50 | 0 | 0 | 0 | 0 | 0 | 0 | 0 | 0 | plant injury at 125 g/ha [14]: 0%
4 | CN1C[C@H](c2cccc(COC(F)F)c2)[C@@H](C(=O)Nc2cccc(F)c2F)C1=O [Compound 873] | 90 | 90 | 40 | 50 | 80 | 90 | 50 | 80 | 40 | 90 | 90 | 100 | 90 | 70 | 50 | 50 | 30 | 60 | 40 | 30 | plant injury at 125 g/ha [14]: 30%
5 | CN1C[C@H](c2cc(F)c(F)c(F)c2)[C@@H](C(=O)Nc2cccc(F)c2F)C1=O [Compound 879] | 100 | 100 | 70 | 80 | 80 | 90 | 60 | 90 | 50 | 90 | 100 | 100 | 100 | 60 | 70 | 50 | 20 | 60 | 70 | 20 | plant injury at 125 g/ha [14]: 70%
6 | CN1C[C@H](c2cc(F)c(F)c(F)c2)[C@@H](C(=O)Nc2ccccc2S(C)(=O)=O)C1=O [Compound 880] | 90 | 100 | 70 | 90 | 70 | 90 | 20 | 70 | 50 | 80 | 100 | 100 | 90 | 20 | 0 | 60 | 50 | 20 | 50 | 40 | plant injury at 125 g/ha [14]: 40%
